Data on 14 compounds can be found in PMC8199291 (Molecules, 2021).

One test deals with T1, human MAGL (hMAGL) (Homo sapiens, UniProt Q99685).
T1 construct: purchased Reaction Biology Corp
T1 sequence (Q99685 1-303): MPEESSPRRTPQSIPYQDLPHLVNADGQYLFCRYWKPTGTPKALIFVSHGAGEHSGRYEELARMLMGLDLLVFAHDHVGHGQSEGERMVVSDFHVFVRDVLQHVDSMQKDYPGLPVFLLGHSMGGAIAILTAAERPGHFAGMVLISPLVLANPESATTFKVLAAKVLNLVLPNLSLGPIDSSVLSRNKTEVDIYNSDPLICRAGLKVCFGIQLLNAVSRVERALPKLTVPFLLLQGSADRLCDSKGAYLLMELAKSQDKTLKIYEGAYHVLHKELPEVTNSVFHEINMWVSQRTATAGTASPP
Briefly: MAGL enzyme inhibition assay (4-nitrophenylacetate hydrolysis, absorbance 405 nm). As to IC50 (µM) ± SE (hMAGL): 250 µM 4-nitrophenylacetate. The class given is biochemical. The following applies: for decrease of MAGL inhibitory activity: relative to the parent compound as worded in the text (disulfiram for 2c, 2d; para substitution of 2h for 2k); for MAGL inhibitory activity (in words): in vitro. As to the method: All of the tested compounds were prepared as 10 mM stock solutions in DMSO. […] The plate was mixed for 30 s and incubated at room temperature for 30 min.

The next test addresses T2, human FAAH (hFAAH) (Homo sapiens, UniProt O00519).
T2 construct: purchased Cayman Item # 10005196
T2 sequence (O00519 1-579): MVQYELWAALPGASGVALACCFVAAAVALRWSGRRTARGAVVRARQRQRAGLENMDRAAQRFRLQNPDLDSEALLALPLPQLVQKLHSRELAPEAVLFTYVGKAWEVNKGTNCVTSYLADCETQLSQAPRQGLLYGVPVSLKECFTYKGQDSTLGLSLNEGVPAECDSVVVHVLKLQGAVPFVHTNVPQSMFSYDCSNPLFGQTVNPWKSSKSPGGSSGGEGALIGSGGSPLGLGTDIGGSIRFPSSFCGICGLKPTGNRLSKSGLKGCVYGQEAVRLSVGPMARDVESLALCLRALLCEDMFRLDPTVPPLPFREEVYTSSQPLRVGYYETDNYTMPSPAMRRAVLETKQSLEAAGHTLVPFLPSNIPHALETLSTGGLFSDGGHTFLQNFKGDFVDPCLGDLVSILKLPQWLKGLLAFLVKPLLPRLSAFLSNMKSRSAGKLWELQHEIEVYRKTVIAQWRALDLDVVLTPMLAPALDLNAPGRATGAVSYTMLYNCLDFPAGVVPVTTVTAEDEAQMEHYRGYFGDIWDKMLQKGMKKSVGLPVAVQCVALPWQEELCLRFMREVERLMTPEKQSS
Briefly: FAAH enzyme inhibition assay (Cayman inhibitor screening kit, AMC-arachidonoyl amide, fluorescence). As to conditions: for FAAH inhibitory activity (in words): in vitro, up to 100 μM. Type of test: biochemical. The method, then: The manufacturer’s protocol was followed to perform the assay. […] AMC-Arachidonoyl amide, at a concentration of 400 μM, was then used as the FAAH substrate. The samples were mixed for 30 s and incubated at 37 °C for 30 min.

Setting [1] is: read-out: IC50 (µM) ± SE (hMAGL).
Setting [2] is: read-out: IC50 (µM) ± SE (hFAAH).
The mark [3] stands for this setting: 10-dose IC50 mode, 3-fold serial dilution, top 100 μM (JZL195 5 μM), 400 μM AMC-arachidonoyl amide, 37 °C 30 min, average of at least two experiments ± SE.

Values joined by “and” are separate entries in the source; they are usually repeats but may differ in a detail not shown here. Identical values can stand only once. “Also recorded” adds a separate entry of the source. Like-named read-outs stand apart in the source and are kept apart here.

The term IC50 denotes the concentration that inhibits the measured activity by half. As to `CCN(CC)C(=S)SSC(=S)N(CC)CC` [2a, Disulfiram, reference compound], the IC50 on human MAGL (hMAGL) (setting [1]) was 0.95 ± 0.26 µM; on human FAAH (hFAAH) (setting [2]), 36 µM and 36.2 µM.

Take `CC(C)N(C(=S)SSC(=S)N(C(C)C)C(C)C)C(C)C` [2b]: the IC50 at human MAGL (hMAGL) (setting [1]) was 1.89 ± 0.37 µM; at human FAAH (hFAAH) (setting [3]) it was over 100 µM.

As for `CCCCN(CCCC)C(=S)SSC(=S)N(CCCC)CCCC` [2c], the results for the IC50 on human MAGL (hMAGL) (setting [1]) and on human FAAH (hFAAH) (setting [3]) were 7.14 ± 0.21 µM and over 100 µM, respectively. The “decrease of MAGL inhibitory activity” value on human MAGL (hMAGL) is reported as “up to 15 fold”. In addition, the “FAAH inhibitory activity (in words)” value on human FAAH (hFAAH) is on record as “no inhibition”.

For the compound `CC(C)CN(CC(C)C)C(=S)SSC(=S)N(CC(C)C)CC(C)C` [2d], the “hydrolytic activity of MAGL inhibited by the compound upon addition of dithiothreitol (reversibility of inhibition)” value at human MAGL (hMAGL) (absence vs presence of dithiothreitol 10 mM) is recorded as “restored”. The IC50 is 13.4 ± 4.79 µM at human MAGL (hMAGL) (setting [1]) and over 100 µM against human FAAH (hFAAH) (setting [3]). Also, on human MAGL (hMAGL), the “decrease of MAGL inhibitory activity” value is recorded as “up to 15 fold”. The “FAAH inhibitory activity (in words)” value on human FAAH (hFAAH) is given as “no inhibition”.

As to `CCN(CCO)C(=S)SSC(=S)N(CC)CCO` [2e], the IC50 at human MAGL (hMAGL) (setting [1]) was 0.72 ± 0.2 µM; at human FAAH (hFAAH) (setting [2]), 25.4 ± 3.26 µM.

With `CCN(CCC(=O)O)C(=S)SSC(=S)N(CC)CCC(=O)O` [2f], the half-maximal inhibitory concentration (IC50) was found to be 0.87 ± 0.21 µM at human MAGL (hMAGL) (setting [1]) and 12.8 ± 1.57 µM at human FAAH (hFAAH) (setting [2]).

On to `CCOC(=O)CCN(CC)C(=S)SSC(=S)N(CC)CCC(=O)OCC` [2g, Bis(N-ethoxycarbonylethylethylthiocarbamoyl)disulphide], for which, on human MAGL (hMAGL), the “MAGL inhibitory activity (in words)” value is reported as “low micromolar range”. The results for the IC50 on human MAGL (hMAGL) (setting [1]) and on human FAAH (hFAAH) (setting [2]) were 3.53 ± 1.32 µM and 10 ± 0.68 µM, respectively.

Regarding `CCN(Cc1ccccc1)C(=S)SSC(=S)N(CC)Cc1ccccc1` [2h], the IC50 on human MAGL (hMAGL) (setting [1]) is 5.53 ± 2.62 µM; on human FAAH (hFAAH) (setting [3]), over 100 µM. On human FAAH (hFAAH), the “FAAH inhibitory activity (in words)” value was “devoid of anti-FAAH activity”.

In the case of `CCN(Cc1ccc(F)cc1)C(=S)SSC(=S)N(CC)Cc1ccc(F)cc1` [2i], the “MAGL inhibitory activity (in words)” value at human MAGL (hMAGL) was “low micromolar range”. Moreover, the IC50 at human MAGL (hMAGL) (setting [1]) was 3.58 ± 1.54 µM; at human FAAH (hFAAH) (setting [3]) it was over 100 µM. For the same compound, on human FAAH (hFAAH), the “FAAH inhibitory activity (in words)” value is recorded as “devoid of anti-FAAH activity; also recorded: did not show any inhibitory activity”.

On to `CCN(Cc1ccc(O)cc1)C(=S)SSC(=S)N(CC)Cc1ccc(O)cc1` [2j], for which the IC50 came to 3.71 ± 1.28 µM on human MAGL (hMAGL) (setting [1]) and 38.3 ± 7.96 µM at human FAAH (hFAAH) (setting [2]).

For `CCN(Cc1ccc(C(=O)O)cc1)C(=S)SSC(=S)N(CC)Cc1ccc(C(=O)O)cc1` [2k], the IC50 on human MAGL (hMAGL) (setting [1]) is 22.6 ± 16.8 µM; against human FAAH (hFAAH) (setting [3]), over 100 µM. Besides, the “FAAH inhibitory activity (in words)” value at human FAAH (hFAAH) is “devoid of anti-FAAH activity”.

Turning to `CCOC(=O)c1ccc(CN(CC)C(=S)SSC(=S)N(CC)Cc2ccc(C(=O)OCC)cc2)cc1` [2l, Bis(N-4-ethoxycarbonylbenzylethylthiocarbamoyl)disulphide], the IC50 on human MAGL (hMAGL) (setting [1]) is 5.03 ± 2.35 µM; at human FAAH (hFAAH) (setting [3]), over 100 µM. Besides, the “FAAH inhibitory activity (in words)” value on human FAAH (hFAAH) is recorded as “devoid of anti-FAAH activity”.

As for `S=C(SSC(=S)N(Cc1ccccc1)Cc1ccccc1)N(Cc1ccccc1)Cc1ccccc1` [2m], the IC50 on human MAGL (hMAGL) was 3.58 ± 0.95 µM; against human FAAH (hFAAH) (setting [3]), over 100 µM. In addition, at human FAAH (hFAAH), the “FAAH inhibitory activity (in words)” value is reported as “complete loss of FAAH inhibitory activity”.

On to `O=C(Oc1ccc([N+](=O)[O-])cc1)N1CCN(Cc2cccc(Oc3ccccc3)c2)CC1` [JZL-195, reference compound], for which half-maximal inhibition against human FAAH (hFAAH) (setting [3]) (IC50) was put at 0.04 ± 0.02 µM.
